Data reported in PubChem BioAssay (NCI).
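The compound was tested at five concentrations on cells cultured in 96-well plates, with a 48-hour exposure period. At the GI50, growth is halved. At the TGI there is no net growth.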 Where a SMILES comes first, the peptide text is derived from it. The star is where a group is joined. Palmitoyl = CCCCCCCCCCCCCCCC(=O)*

What was measured:
Assay in all cases: growth of human tumour cells (NCI), 48 h
ACHN renal = system: ACHN renal
MCF7 breast = system: MCF7 breast
SF-268 CNS = system: SF-268 CNS
SK-MEL-28 melanoma = system: SK-MEL-28 melanoma
SN12C renal = system: SN12C renal
COLO 205 colon = system: COLO 205 colon
HOP-92 NSCLC = system: HOP-92 NSCLC
IGROV1 ovarian = system: IGROV1 ovarian
SF-295 CNS = system: SF-295 CNS
SW-620 colon = system: SW-620 colon

| Structure (SMILES) | TGI (ACHN renal) [µM] | TGI (MCF7 breast) [µM] | TGI (SF-268 CNS) [µM] | TGI (SK-MEL-28 melanoma) [µM] | TGI (SN12C renal) [µM] | TGI (COLO 205 colon) [µM] | TGI (HOP-92 NSCLC) [µM] | TGI (IGROV1 ovarian) [µM] | TGI (SF-295 CNS) [µM] | TGI (SW-620 colon) [µM] | GI50 (COLO 205 colon) [µM] | GI50 (HOP-92 NSCLC) [µM] | GI50 (IGROV1 ovarian) [µM] | GI50 (MCF7 breast) [µM] | GI50 (SF-268 CNS) [µM] | GI50 (SF-295 CNS) [µM] | GI50 (SK-MEL-28 melanoma) [µM] | GI50 (SW-620 colon) [µM] | GI50 (ACHN renal) [µM] | GI50 (SN12C renal) [µM] |
| --- | --- | --- | --- | --- | --- | --- | --- | --- | --- | --- | --- | --- | --- | --- | --- | --- | --- | --- | --- | --- |
| Cc1c(-c2ccccc2)[nH]c2cc(Cl)ccc2c1=O | > 100 | > 100 | > 100 | > 100 | > 100 |  |  |  |  |  |  |  |  |  |  |  |  |  |  |  |
| COc1cc(C(C)O)c[n+](Cc2ccccc2)c1 (stereo unspecified) | > 100 |  | > 100 | > 100 | > 100 | > 100 | > 100 | > 100 | > 100 | > 100 |  |  |  |  |  |  |  |  |  |  |
| CON(C)c1nc(N(C)OC)nc(N(C)OC)n1 | > 10 | > 10 | > 10 | > 10 | > 10 | > 10 |  | > 10 | > 10 | > 10 |  |  |  |  |  |  |  |  |  |  |
| CC(N)Cc1ccc(Cl)c(Cl)c1 (stereo unspecified) | > 84.6 |  | > 100 | 39.1 | > 74 | 36.5 | 57.4 | > 100 | > 80.1 | 51.8 |  |  |  |  |  |  |  |  |  |  |
| COC(=O)c1c(C)n([O-])c2cc(Cl)c(Cl)cc2[n+]1=O | 62.8 | > 100 | > 100 | 92.1 | 84 | 25.8 |  | 19.9 | > 100 | > 100 |  |  |  |  |  |  |  |  |  |  |
| CCN1CCC(O)(/C=C/c2ccccc2C)C(C(=O)/C=C/c2ccccc2C)C1 (stereo unspecified) |  | 7.37 | 14 | 6.71 | 4.6 | 3.13 | 3.38 | 14.5 | 6.68 | 10.1 |  |  |  |  |  |  |  |  |  |  |
| CN1C(c2ccccc2)CC(=O)C(N)C1c1ccccc1 (stereo unspecified) | > 100 |  | > 100 | > 31.6 | 97.6 | 32.5 | 78.9 | > 100 | > 100 | 57.1 |  |  |  |  |  |  |  |  |  |  |
| O=C(N/N=C/c1ccc([N+](=O)[O-])cc1)Nc1ccc(C(=O)O)cc1 | 99.4 | > 100 | > 100 | > 100 | > 100 | 81 | 92.1 | > 100 | 63.7 | > 100 |  |  |  |  |  |  |  |  |  |  |
| c1cnc2c(c1)ccc1cccnc12 | > 100 | > 100 | > 100 | > 100 | > 28.2 | > 83.3 | > 100 | > 100 | > 100 | > 100 |  |  |  |  |  |  |  |  |  |  |
| COC(=O)/C=C(\CC(=O)OC)n1nnnc1[C@@H]1C[C@H](COC(c2ccccc2)(c2ccccc2)c2ccccc2)[C@H]2OC(C)(C)O[C@H]21 | > 100 | > 100 | > 100 | > 100 | > 100 | > 100 | > 100 | > 100 | > 100 | > 100 |  |  |  |  |  |  |  |  |  |  |
| CCCCCCCCCCCCCCCC(=O)N1CCCC1C(=O)NCC(=O)NC(Cc1ccccc1)C(=O)NC(C)C(=O)NC(CO)C(=O)NC(Cc1ccc(O)cc1)C(=O)NC(CCCCN)C(=O)NC(CC(C)C)C(=O)NC(CCCN=C(N)N)C(=O)N1CCCC1C(=O)NCC(N)=O (stereo unspecified) (Palmitoyl-PGFASYKLRPG-NH2; configuration not given here) |  | 42.8 | 36 | 48.8 |  | 22.8 | 34.7 | 46.1 | 67.1 | > 100 | 10.9 | 15.8 | 20.1 | 18.2 | 16.3 | 27.3 | 22.1 | 37.5 |  |  |
| Cc1ccc(-c2nc(N/N=C/C=C/c3ccccc3)c3ccccc3n2)cc1 | 75.9 | 75.9 | > 100 | > 100 | 99 | > 100 | > 100 | > 100 | > 100 | > 100 |  |  |  |  |  |  |  |  |  |  |
| C=C(C)C1Cc2c(c3ccccc3n(C)c2=O)O1 (stereo unspecified) | > 100 |  | > 100 | > 100 | > 100 | > 100 | > 100 | > 100 | > 100 | > 100 |  |  |  |  |  |  |  |  |  |  |
| c1ccc(-c2nc(N3CCNCC3)c3oc(-c4ccccc4)nc3n2)cc1 | 3 | 3.31 | 3.46 | 3.16 | 2.98 | 4.88 | 3.06 | 3.22 | 3.22 | 2.94 | 2.14 | 1.46 | 1.69 | 1.48 | 1.73 | 1.75 | 1.73 | 1.35 | 1.64 | 1.61 |
| CC(C)C(C(=O)O)N1C(=O)c2ccccc2C1=O (stereo unspecified) | > 100 | > 100 | > 100 | > 100 | > 100 | > 100 | > 100 | > 100 | > 100 | > 100 |  |  |  |  |  |  |  |  |  |  |
| COC(=O)c1ccc2c(c1)S/C(=C/c1ccc3ccc4cccc5ccc1c3c45)S2 | > 100 | > 100 | > 100 |  | > 100 | > 100 | > 100 | > 100 | > 100 | 76.8 |  |  |  |  |  |  |  |  |  |  |
| O[C@@]12Cc3c([nH]c4ccccc34)[C@@H]3Oc4cccc5c4[C@@]31CCN(CC1CC1)[C@@H]2C5 | 34.8 | 31.3 | 34 | 38.3 | 37 | 49.8 | 25.6 | 45.4 |  | 25.7 |  |  |  |  |  |  |  |  |  |  |
| COC(=O)C1=C(OC(=O)/C(=C/c2ccc(Cl)cc2)c2ccc(Cl)cc2)C(C(=O)OC)[C@]2(O)[C@@H](C(=O)OC)[C@H]1C[C@@H](c1ccccc1)[C@@H]2C(=O)OC (stereo partly specified) | > 100 |  | > 100 | > 100 | > 100 | > 100 |  | > 100 | > 100 | > 100 |  |  |  |  |  |  |  |  |  |  |
| CCCC1CCC(=C2C(=O)CCC2=O)O1 (stereo unspecified) | > 100 | > 100 | > 100 | > 100 | > 100 | > 100 | > 100 | > 100 | > 100 | > 100 |  |  |  |  |  |  |  |  |  |  |
| Cn1c(-c2ccccc2)cc(-c2cccs2)c1-c1cccs1 |  | > 100 | > 100 | > 100 | > 100 | > 100 | > 100 | > 100 | > 100 | > 100 |  |  |  |  |  |  |  |  |  |  |
| Nc1nc(Nc2ccccc2)c2[nH]cnc2n1 | > 100 | > 100 |  | > 100 | > 100 | > 100 | 92.4 | > 100 | > 100 | > 100 |  |  |  |  |  |  |  |  |  |  |
| OCCN(CCO)c1ncnc2nc[nH]c12 | > 100 | > 100 | > 100 | > 100 | > 100 | > 100 | > 100 | > 100 | > 100 | > 100 |  |  |  |  |  |  |  |  |  |  |
| CC1=NN(c2nc(N)nc(/C(C#N)=C\c3csc([N+](=O)[O-])c3)n2)C(C)(C)C1 | > 100 | > 100 | 53.4 | > 100 |  |  | > 100 | > 100 | > 100 | > 100 |  |  |  |  |  |  |  |  |  |  |
| O=c1c2cc(S(=O)(=O)O)ccc2nc(COc2ccc(Oc3ccc(Cl)cc3Cl)cc2)n1-c1ccc(Oc2ccc(Cl)cc2)cc1Cl | 56.6 | 40.6 | 26 |  | 32.9 | 34 | 31.4 | 66.2 | 35.5 | 50.4 |  |  |  |  |  |  |  |  |  |  |
| CC1=C(O)C2=C(C(=O)C1=O)[C@@H](C)CC[C@@H]2[C@@H](C)C/C=C/C(C)(C)O | 98 | > 100 | > 100 |  | > 100 | > 100 |  | > 100 | > 100 | > 100 |  |  |  |  |  |  |  |  |  |  |
| CC12C=CC(=O)C=C1CCC1C3CCC(O)(C(=O)CO)C3(C)CC(O)C12F (stereo unspecified) | > 100 | > 100 | > 100 | > 100 | > 100 | > 100 | > 100 | > 100 | > 100 | > 100 |  |  |  |  |  |  |  |  |  |  |
| Nc1nc(O)c2ncn([C@H]3CC[C@@H](CO)O3)c2n1 |  | > 100 |  | > 100 | > 100 | > 100 | > 100 | > 100 | > 100 | > 100 |  |  |  |  |  |  |  |  |  |  |
| COc1ccc(Oc2cccc(C3C4C(=O)N(c5ccc(C)c(Cl)c5)C(=O)C4ON3C(C(N)=O)c3ccccc3)c2)cc1 (stereo unspecified) | > 50 | 47.9 | > 50 | > 50 | 29.3 | 42.6 | > 50 | > 50 | > 50 | > 50 |  |  |  |  |  |  |  |  |  |  |
| C/C(=N/N=C(\[O-])c1ccncc1)C(F)(F)F.C/C(=N\N=C(/[O-])c1ccncc1)C(F)(F)F.[Ni+2] |  |  | > 1 | 0.005 |  | > 1 |  |  | > 1 | > 1 | > 1 |  |  |  | > 1 | > 1 | 0.00108 | > 1 |  |  |
